Test results published in US20100298377A1, “NOVEL SUBSTITUTED INDAZOLES, THE PREPARATION THEREOF AND USE OF SAME IN THERAPEUTICS” (SANOFI-AVENTIS, priority 2007, published 2010).
Structures can show the parent of a compound that is named as a salt.

Assays:
AKT1 = AKT1 (Homo sapiens, UniProt P31749, S473D); assay: Determination of the IC50 for AKT1 (HTRF); type: biochemical; conditions: AKT1 without PH domain, activated by PDK1
Procedure: Determination of the IC50 for AKT1
The inhibitory potential of the compounds is evaluated by HTRF, a time-resolved fluorescence technique based on non-radiative energy transfer (FRET). […] This phosphorylation allows the kinase activity of AKT1 to be activated.
Starting with a 10 mM solution of inhibitors, 3 μl are taken and placed in a 96-well polypropylene plate containing 27 μl of 100% DMSO. The various test compounds are diluted in cascade by taking 15 μl of compound, to which are added 30 μl of 100% DMSO.
The various reaction components are added in the following manner:
Next, 10 μl of the inhibitor solution are added. Finally, the reaction is initiated by adding 10 μl of a solution containing both 100 μM of ATP and 10 μM of biotinylated peptide. The sequence of this peptide is as follows: biot-[…] (reference Neosystem SP000560). The plate is then covered with a plastic film, agitated and finally incubated at RT for 30 minutes. […] After incubation overnight at 4° C., the plate is read using an Ultra evolution spectrophotometer from Tecan. […] All the tests are performed in duplicate and the mean of the two tests is calculated.
For each point, a delta F is calculated in the following manner:
R(Ratio)=counts665 nm/counts620 nm
ΔF % is calculated by the Tecan Ultra Evolution machine.

Sequence of AKT1 (P31749 118-480 S473D limits assumed): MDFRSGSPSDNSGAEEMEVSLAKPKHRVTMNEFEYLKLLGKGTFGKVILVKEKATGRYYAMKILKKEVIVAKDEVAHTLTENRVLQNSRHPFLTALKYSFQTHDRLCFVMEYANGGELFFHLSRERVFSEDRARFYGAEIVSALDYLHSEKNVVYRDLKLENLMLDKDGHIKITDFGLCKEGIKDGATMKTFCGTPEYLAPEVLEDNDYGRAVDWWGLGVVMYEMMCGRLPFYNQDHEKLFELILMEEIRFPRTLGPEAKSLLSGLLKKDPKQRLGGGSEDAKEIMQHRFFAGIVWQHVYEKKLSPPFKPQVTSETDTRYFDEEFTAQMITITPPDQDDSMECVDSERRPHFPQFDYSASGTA

melting point [°C] | IC50 (AKT1) [µM] | Compound
235 | – | CN1CCCCC1C(NC(=O)Nc1ccc2[nH]nc(NC(=O)c3ccccc3)c2c1)c1ccccc1 (as salt: fumarate) [Ex 28, N-[5-({[(1-Methylpiperid-2-yl)(phenyl)methyl]carbamoyl}amino)-1H-indazol-3-yl]benzamide((S,2S),(R,2R))]
– | < 0.1 | CN1CCCCC1C(NC(=O)Nc1ccc2[nH]nc(-c3cccnc3)c2c1)c1ccccc1 [Ex 14, 1-[(1-Methylpiperid-2-yl)(phenyl)methyl]-3-(3-pyrid-3-yl-1H-indazol-5-yl)urea((S,2S),(R,2R))]
– | < 0.1 | O=C(Nc1ccc2[nH]ncc2c1)O[C@H](c1cc(F)cc(Cl)c1)[C@H]1CCCCN1 [Ex 39d, (R)-(3-Chloro-5-fluorophenyl)[(2R)-piperid-2-yl]methyl 1H-indazol-5-ylcarbamate]
205 | – | CN(C(=O)NC(c1ccccc1)C1CCCCN1C)c1ccc2[nH]ncc2c1 (as salt: fumaric acid salt) [Ex 33, 1-(1H-Indazol-5-yl)-1-methyl-3-[(1-methylpiperid-2-yl)(phenyl)methyl]urea((S,2S),(R,2R))]
250 | – | CN1CCCCC1C(NC(=O)Nc1ccc2[nH]nc(-c3nc4ccccc4[nH]3)c2c1)c1ccccc1 (as salt: fumaric acid salt) [Ex 17, 1-[3-(1H-Benzimidazol-2-yl)-1H-indazol-5-yl]-3-[(1-methylpiperid-2-yl)(phenyl)methyl]urea((S,2S),(R,2R))]
– | 0.1 to 0.5 | O=C(Nc1ccc2[nH]ncc2c1)O[C@@H](c1cc(F)cc(Cl)c1)[C@H]1CCCCN1 [Ex 39c, (S)-(3-Chloro-5-fluorophenyl)[(2R)-piperid-2-yl]methyl 1H-indazol-5-ylcarbamate]
– | < 0.1 | CN1CCCCC1C(NC(=O)Nc1ccc2[nH]nc(-c3ccc(S(N)(=O)=O)cc3)c2c1)c1ccccc1 [Ex 12, 4-[5-({[(1-Methylpiperid-2-yl)(phenyl)methyl]carbamoyl}amino)-1H-indazol-3-yl]benzenesulfonamide((S,2S),(R,2R))]
221 to 222 | – | CN1CCCCC1C(NC(=O)Nc1cc(F)c2[nH]nc(N)c2c1)c1ccccc1 (as salt: fumaric acid salt) [Ex 20, 1-(3-Amino-7-fluoro-1H-indazol-5-yl)-3-[(1-methylpiperid-2-yl)(phenyl)methyl]urea((S,2S),(R,2R))]
– | 0.1 to 0.5 | CN1CCCCC1C(c1ccccc1)n1ccn(-c2ccc3[nH]ncc3c2)c1=O [Ex 30, 1-(1H-Indazol-5-yl)-3-[(1-methylpiperid-2-yl)phenylmethyl]-1,3-dihydroimidazol-2-one((S,2S),(R,2R))]
208 | – | O=C(Nc1ccc2[nH]ncc2c1)N[C@@H](c1cc(F)cc(Cl)c1)[C@@H]1CCCCN1 (as salt: hydrochloride) [Ex 3, 1-{(S)-(3-Chloro-5-fluorophenyl)[(2S)-piperid-2-yl]methyl}-3-(1H-indazol-5-yl)urea]
172 | – | CN1CCCCC1C(OC(=O)Nc1ccc2[nH]ncc2c1)c1cc(F)cc(Cl)c1 (stereo not drawn) (as salt: hydrochloride) [Ex 36, (3-Chloro-5-fluorophenyl)(1-methylpiperid-2-yl)methyl 1H-indazol-5-ylcarbamate]
220 | – | CN1CCCCC1C(NC(=O)Nc1ccc2[nH]nc(-c3ccc(S(N)(=O)=O)cc3)c2c1)c1ccccc1 (as salt: fumaric acid salt) [Ex 12, 4-[5-({[(1-Methylpiperid-2-yl)(phenyl)methyl]carbamoyl}amino)-1H-indazol-3-yl]benzenesulfonamide((S,2S),(R,2R))]
220 | – | O=C(Nc1ccc2[nH]ncc2c1)OC(c1cc(Cl)cc(Cl)c1)C1CCCCN1 (as salt: hydrochloride) [Ex 34, (3,5-Dichlorophenyl)[piperid-2-yl]methyl 1H-indazol-5-ylcarbamate((S,2S),(R,2R))]
226 | – | O=C(Nc1ccc2[nH]ncc2c1)O[C@@H](c1cc(F)cc(Cl)c1)[C@@H]1CCCCN1 (as salt: hydrochloride) [Ex 35, (S)-(3-Chloro-5-fluorophenyl)[(2S)-piperid-2-yl]methyl 1H-indazol-5-ylcarbamate]
194 | – | CN1CCCCC1C(c1ccccc1)N(C)C(=O)Nc1ccc2[nH]ncc2c1 (as salt: fumaric acid salt) [Ex 32, 3-(1H-Indazol-5-yl)-1-methyl-1-[(1-methylpiperid-2-yl)phenylmethyl]urea((S,2S),(R,2R))]
– | 0.5 to 2 | CC(C)(C)c1ccc(NC(=O)c2cccc(C(OC(=O)Nc3ccc4[nH]ncc4c3)[C@@H]3CCCCN3)c2)cc1 (stereo partly drawn) [Ex 42, {3-[(4-tert-Butylphenyl)carbamoyl]phenyl}[(2S)-piperid-2-yl]methyl 1H-Indazol-5-yl carbamate]

melting point [°C] | IC50 (AKT1) [µM] | Compound
> 250 | – | CN1CCCCC1C(NC(=O)Nc1ccc2[nH]nc(-c3ccccn3)c2c1)c1ccccc1 (as salt: fumaric acid salt) [Ex 15, 1-[(1-Methylpiperid-2-yl)(phenyl)methyl]-3-(3-pyrid-2-yl-1H-indazol-5-yl)urea((S,2S),(R,2R))]
230 | – | CN1CCCCC1C(NC(=O)Nc1ccc2[nH]nc(C#Cc3cccnc3)c2c1)c1ccccc1 (as salt: fumaric acid salt) [Ex 25, 1-[(1-Methylpiperid-2-yl)(phenyl)methyl]-3-[3-(pyrid-3-ylethynyl)-1H-indazol-5-yl]urea((S,2S),(R,2R))]
145 | – | S=C(Nc1ccc2[nH]ncc2c1)N[C@@H](c1ccc(Cl)c(Cl)c1)[C@@H]1CCCCN1 (as salt: fumarate) [Ex 31, 1-{(S)-(3,4-Dichlorophenyl)[(2S)-piperid-2-yl]methyl}-3-(1H-indazol-5-yl)thiourea]
– | 0.5 to 2 | CN(C(=O)NC(c1ccccc1)C1CCCCN1C)c1ccc2[nH]ncc2c1 [Ex 33, 1-(1H-Indazol-5-yl)-1-methyl-3-[(1-methylpiperid-2-yl)(phenyl)methyl]urea((S,2S),(R,2R))]
– | 0.1 to 0.5 | CN1CCCCC1C(NC(=O)Nc1ccc2[nH]nc(NC(=O)c3ccccc3)c2c1)c1ccccc1 [Ex 28, N-[5-({[(1-Methylpiperid-2-yl)(phenyl)methyl]carbamoyl}amino)-1H-indazol-3-yl]benzamide((S,2S),(R,2R))]
205 | – | CN1CCCCC1C(NC(=O)Nc1ccc2[nH]nc(-c3ccncc3)c2c1)c1ccccc1 (as salt: fumaric acid salt) [Ex 13, 1-[(1-Methylpiperid-2-yl)(phenyl)methyl]-3-(3-pyrid-4-yl-1H-indazol-5-yl)urea((S,2S),(R,2R))]
– | 0.1 to 0.5 | CN1CCCCC1C(NC(=O)Nc1ccc2[nH]nc(C#Cc3cccc(F)c3)c2c1)c1ccccc1 [Ex 22, 1-{3-[(3-Fluorophenyl)ethynyl]-1H-indazol-5-yl}-3-[(1-methylpiperid-2-yl)(phenyl)methyl]urea((S,2S),(R,2R))]
192 | – | CN1CCCCC1C(NC(=O)Nc1ccc2[nH]ncc2c1)c1cc(F)cc(Cl)c1 (stereo not drawn) (as salt: hydrochloride) [Ex 11, 1-[(3-Chloro-5-fluorophenyl)(1-methylpiperid-2-yl)methyl]-3-(1H-indazol-5-yl)urea]
– | 0.1 to 0.5 | O=C(Nc1ccc2[nH]ncc2c1)OC(c1cccc(C(=O)Nc2ccccc2)c1)[C@@H]1CCCCN1 (stereo partly drawn) [Ex 43, [3-(Anilinocarbonyl)phenyl][(2S)-piperid-2-yl]methyl 1H-Indazol-5-ylcarbamate]
244 | – | CN1CCCCC1C(NC(=O)Nc1ccc2[nH]nc(C#Cc3ccc(F)cc3)c2c1)c1ccccc1 (as salt: fumaric acid salt) [Ex 24, 1-{3-[(4-Fluorophenyl)ethynyl]-1H-indazol-5-yl}-3-[(1-methylpiperid-2-yl)(phenyl)methyl]urea((S,2S),(R,2R))]
– | 0.5 to 2 | CCOC(=O)c1cccc(C(OC(=O)Nc2ccc3[nH]ncc3c2)[C@@H]2CCCCN2)c1 (stereo partly drawn) [Ex 41, Ethyl 3-{[(1H-Indazol-5-ylcarbamoyl)oxy][(2S)-piperid-2-yl]methyl}benzoate]
– | 0.1 to 0.5 | O=C(Nc1ccc2[nH]nc(C#Cc3ccccc3)c2c1)N[C@@H](c1ccc(Cl)c(Cl)c1)[C@@H]1CCCCN1 [Ex 26, 1-{(S)-(3,4-Dichlorophenyl)[(2S)-piperid-2-yl]methyl}-3-[3-(phenylethynyl)-1H-indazol-5-yl]urea]
– | < 0.1 | O=C(Nc1ccc2[nH]ncc2c1)O[C@@H](c1cccc(C(F)(F)F)c1)[C@@H]1CCCCN1 [Ex 44, (S)-(3-Trifluoromethylphenyl)[(2S)-piperid-2-yl]methyl 1H-indazol-5-ylcarbamate]
– | 0.5 to 2 | CN1CCCCC1C(c1ccccc1)N(C)C(=O)Nc1ccc2[nH]ncc2c1 [Ex 32, 3-(1H-Indazol-5-yl)-1-methyl-1-[(1-methylpiperid-2-yl)phenylmethyl]urea((S,2S),(R,2R))]
– | 0.5 to 2 | CN1CCCCC1C(NC(=O)Nc1cc(F)c2[nH]nc(NC(=O)c3ccccc3)c2c1)c1ccccc1 [Ex 19, N-[7-Fluoro-5-({[(1-methylpiperid-2-yl)(phenyl)methyl]carbamoyl}amino)-1H-indazol-3-yl]benzamide((S,2S),(R,2R))]
– | < 0.1 | O=C(Nc1ccc2[nH]ncc2c1)O[C@@H](c1cccc(I)c1)[C@@H]1CCCCN1 [Ex 45, (S)-(3-Iodophenyl)[(2S)-piperid-2-yl]methyl 1H-indazol-5-ylcarbamate]

Compound | melting point [°C] | IC50 (AKT1) [µM]
(7-Fluoro-1H-indazol-5-yl)-(S)-(3-chloro-5-fluorophenyl)-(S)-piperid-2-ylmethyl carbamate [Ex 49] | – | < 0.1
